Results reported in US9695155B2, “Herbicidal substituted pyrimidinyloxy benzene compounds” (E. I. DU PONT DE NEMOURS AND COMPANY, priority 2013, dated 2017).

Tests used:
[1] = test system: chickweed; assay: Test D preemergence; assay type: in vivo, Stellaria media
From the text: (§1) Seeds of plant species selected from bluegrass (annual bluegrass, Poa annua), blackgrass (Alopecurus myosuroides), canarygrass (littleseed canarygrass, Phalaris minor), chickweed (common chickweed, Stellaria media), galium (catchweed bedstraw, Galium aparine), bromegrass, downy (downy bromegrass, Bromus tectorum), field poppy (Papaver rhoeas), field violet (Viola arvensis), green foxtail (Setaria viridis), deadnettle (henbit deadnettle, Lamium amplexicaule), Italian ryegrass (Lolium multiflorum), kochia (Kochia scoparia), lambsquarters (Chenopodium album), oilseed rape (Brassica napus), pigweed (Amaranthus retroflexus), chamomile (scentless chamomile, Matricaria inodora), Russian thistle (Salsola kali), speedwell (bird's-eye speedwell, Veronica persica), spring barley (Hordeum vulgare), spring wheat (Triticum aestivum), wild buckwheat (Polygonum convolvulus), wild mustard (Sinapis arvensis), wild oat (Avena fatua), wild radish (Raphanus raphanistrum), windgrass (Apera spica-venti), winter barley (Hordeum vulgare), and winter wheat (Triticum aestivum) were planted into a silt loam soil and treated preemergence with test chemicals formulated in a non-phytotoxic solvent mixture which included a surfactant.
(§2) At the same time, these species were planted in pots containing Redi-Earth® planting medium (Scotts Company, 14111 Scottslawn Road, Marysville, Ohio 43041) comprising spaghnum peat moss, vermiculite, wetting agent and starter nutrients and treated with postemergence applications of the test chemicals formulated in the same manner. Plants ranged in height from 2 to 18 cm (1- to 4-leaf stage). Treated plants and controls were maintained in a controlled growth environment for 7 to 21 days after which time all species were compared to controls and visually evaluated. Plant response ratings, summarized in Table D, are based on a scale of 0 to 100 where 0 is no effect and 100 is complete control. A dash (-) response means no test result.

[2] = test system: bromegrass, downy; assay: Test D preemergence; assay type: in vivo, Bromus tectorum
From the text: as §1, §2

[3] = test system: lambsquarters; assay: Test D preemergence; assay type: in vivo, Chenopodium album
From the text: as §1, §2

[4] = test system: spring wheat; assay: Test D preemergence; assay type: in vivo, Triticum aestivum
From the text: as §1, §2

[5] = test system: winter wheat; assay: Test D preemergence; assay type: in vivo, Triticum aestivum
From the text: as §1, §2

[6] = test system: field poppy; assay: Test D postemergence; assay type: in vivo, Papaver rhoeas
From the text: as §1, §2

[7] = test system: deadnettle; assay: Test D postemergence; assay type: in vivo, Lamium amplexicaule
From the text: as §1, §2

[8] = test system: lambsquarters; assay: Test D postemergence; assay type: in vivo, Chenopodium album
From the text: as §1, §2

[9] = test system: chamomile; assay: Test D postemergence; assay type: in vivo, Matricaria inodora
From the text: as §1, §2

[10] = test system: wild oat; assay: Test D postemergence; assay type: in vivo, Avena fatua
From the text: as §1, §2

[11] = test system: windgrass; assay: Test D postemergence; assay type: in vivo, Apera spica-venti
From the text: as §1, §2

[12] = 16 g ai/ha, scale 0 (no effect) to 100 (complete control)
[13] = 31 g ai/ha, scale 0 (no effect) to 100 (complete control)
[14] = 31 g ai/ha, scale 0 to 100 (0 no effect, 100 complete control)
[15] = 62 g ai/ha, scale 0 to 100 (0 no effect, 100 complete control)
[16] = 250 g ai/ha, scale 0 to 100 (0 no effect, 100 complete control)
[17] = 125 g ai/ha, scale 0 to 100 (0 no effect, 100 complete control)

## Clc1cnc(Oc2ccccc2-n2cc(Cl)cn2)nc1 [Compound 3]
[1]; [12]
  Plant response rating, Chickweed: 0
[1]; 62 g ai/ha, scale 0-100
  Plant response rating, Chickweed: 0
[1]; 250 g ai/ha, scale 0-100
  Plant response rating, Chickweed: 90
[2]; [12]
  Plant response rating, Bromegrass, Downy: 0
[2]; 31 g ai/ha, scale 0-100
  Plant response rating, Bromegrass, Downy: 0
[2]; 62 g ai/ha, scale 0-100
  Plant response rating, Bromegrass, Downy: 0
[2]; 125 g ai/ha, scale 0-100
  Plant response rating, Bromegrass, Downy: 0
[2]; 250 g ai/ha, scale 0-100
  Plant response rating, Bromegrass, Downy: 0
[3]; [12]
  Plant response rating, Lambsquarters: 0
[3]; 31 g ai/ha, scale 0-100
  Plant response rating, Lambsquarters: 0
[3]; 62 g ai/ha, scale 0-100
  Plant response rating, Lambsquarters: 0
[3]; 125 g ai/ha, scale 0-100
  Plant response rating, Lambsquarters: 25
[3]; 250 g ai/ha, scale 0-100
  Plant response rating, Lambsquarters: 50
[4]; [12]
  Plant response rating, Wheat, Spring: 0
[4]; [13]
  Plant response rating, Wheat, Spring: 0
[4]; 62 g ai/ha, scale 0-100
  Plant response rating, Wheat, Spring: 0
[4]; 125 g ai/ha, scale 0-100
  Plant response rating, Wheat, Spring: 0
[4]; 250 g ai/ha, scale 0-100
  Plant response rating, Wheat, Spring: 0
[5]; [12]
  Plant response rating, Wheat, Winter: 0
[5]; [13]
  Plant response rating, Wheat, Winter: 0
[5]; 62 g ai/ha, scale 0-100
  Plant response rating, Wheat, Winter: 0
[5]; 125 g ai/ha, scale 0-100
  Plant response rating, Wheat, Winter: 0
[5]; 250 g ai/ha, scale 0-100
  Plant response rating, Wheat, Winter: 0
[6]; 16 g ai/ha, scale 0-100
  Plant response rating, Field Poppy: 10
[6]; [14]
  Plant response rating, Field Poppy: 0
[6]; [15]
  Plant response rating, Field Poppy: 0
[6]; [16]
  Plant response rating, Field Poppy: 0
[7]; 16 g ai/ha, scale 0-100
  Plant response rating, Deadnettle: 10
[7]; [14]
  Plant response rating, Deadnettle: 10
[7]; [15]
  Plant response rating, Deadnettle: 10
[7]; [17]
  Plant response rating, Deadnettle: 10
[7]; [16]
  Plant response rating, Deadnettle: 20
[8]; 16 g ai/ha, scale 0-100
  Plant response rating, Lambsquarters: 25
[8]; [14]
  Plant response rating, Lambsquarters: 20
[8]; [15]
  Plant response rating, Lambsquarters: 60
[8]; [17]
  Plant response rating, Lambsquarters: 80
[8]; [16]
  Plant response rating, Lambsquarters: 85
[9]; 16 g ai/ha, scale 0-100
  Plant response rating, Chamomile: 0
[9]; [14]
  Plant response rating, Chamomile: 0
[9]; [15]
  Plant response rating, Chamomile: 0
[9]; [17]
  Plant response rating, Chamomile: 0
[9]; [16]
  Plant response rating, Chamomile: 0
[10]; 16 g ai/ha, scale 0-100
  Plant response rating, Oat, Wild: 70
[10]; [14]
  Plant response rating, Oat, Wild: 0
[10]; [15]
  Plant response rating, Oat, Wild: 0
[10]; [17]
  Plant response rating, Oat, Wild: 0
[10]; [16]
  Plant response rating, Oat, Wild: 0
[11]; 16 g ai/ha, scale 0-100
  Plant response rating, Windgrass: 70
[11]; [14]
  Plant response rating, Windgrass: 0
[11]; [15]
  Plant response rating, Windgrass: 0
[11]; [17]
  Plant response rating, Windgrass: 0
[11]; [16]
  Plant response rating, Windgrass: 10

## Fc1cccc(Oc2ncc(Cl)cn2)c1-n1cc(Br)cn1 [Compound 178, 2-[2-(4-bromo-1H-pyrazol-1-yl)-3-fluorophenoxy]-5-chloropyrimidine]
[1]; Stellaria media, pre-emergence, 16 g ai/ha, scale 0 (no effect) to 100 (complete control), read-out: Plant response rating, Chickweed
  pest or weed control at 16 g/ha: 0%
[1]; Stellaria media, pre-emergence, 31 g ai/ha, scale 0-100, read-out: Plant response rating, Chickweed
  pest or weed control at 31 g/ha: 50%
[1]; Stellaria media, pre-emergence, 62 g ai/ha, scale 0-100, read-out: Plant response rating, Chickweed
  pest or weed control at 62 g/ha: 85%
[1]; Stellaria media, pre-emergence, 125 g ai/ha, scale 0-100, read-out: Plant response rating, Chickweed
  pest or weed control at 125 g/ha: 90%
[2]; Bromus tectorum, pre-emergence, 16 g ai/ha, scale 0 (no effect) to 100 (complete control), read-out: Plant response rating, Bromegrass, Downy
  pest or weed control at 16 g/ha: 0%
[2]; Bromus tectorum, pre-emergence, 31 g ai/ha, scale 0-100, read-out: Plant response rating, Bromegrass, Downy
  pest or weed control at 31 g/ha: 0%
[2]; Bromus tectorum, pre-emergence, 62 g ai/ha, scale 0-100, read-out: Plant response rating, Bromegrass, Downy
  pest or weed control at 62 g/ha: 0%
[2]; Bromus tectorum, pre-emergence, 125 g ai/ha, scale 0-100, read-out: Plant response rating, Bromegrass, Downy
  pest or weed control at 125 g/ha: 10%
[3]; Chenopodium album, pre-emergence, 16 g ai/ha, scale 0 (no effect) to 100 (complete control), read-out: Plant response rating, Lambsquarters
  pest or weed control at 16 g/ha: 20%
[3]; Chenopodium album, pre-emergence, 31 g ai/ha, scale 0-100, read-out: Plant response rating, Lambsquarters
  pest or weed control at 31 g/ha: 70%
[3]; Chenopodium album, pre-emergence, 62 g ai/ha, scale 0-100, read-out: Plant response rating, Lambsquarters
  pest or weed control at 62 g/ha: 80%
[3]; Chenopodium album, pre-emergence, 125 g ai/ha, scale 0-100, read-out: Plant response rating, Lambsquarters
  pest or weed control at 125 g/ha: 85%
[6]; Papaver rhoeas, post-emergence, 16 g ai/ha, scale 0-100, read-out: Plant response rating, Field Poppy
  pest or weed control at 16 g/ha: 45%
[6]; Papaver rhoeas, post-emergence, 31 g ai/ha, scale 0 to 100 (0 no effect, 100 complete control), read-out: Plant response rating, Field Poppy
  pest or weed control at 31 g/ha: 55%
[6]; Papaver rhoeas, post-emergence, 62 g ai/ha, scale 0 to 100 (0 no effect, 100 complete control), read-out: Plant response rating, Field Poppy
  pest or weed control at 62 g/ha: 65%
[6]; Papaver rhoeas, post-emergence, 125 g ai/ha, scale 0 to 100 (0 no effect, 100 complete control), read-out: Plant response rating, Field Poppy
  pest or weed control at 125 g/ha: 75%
[7]; Lamium amplexicaule, post-emergence, 16 g ai/ha, scale 0-100, read-out: Plant response rating, Deadnettle
  pest or weed control at 16 g/ha: 40%
[7]; Lamium amplexicaule, post-emergence, 31 g ai/ha, scale 0 to 100 (0 no effect, 100 complete control), read-out: Plant response rating, Deadnettle
  pest or weed control at 31 g/ha: 45%
[7]; Lamium amplexicaule, post-emergence, 62 g ai/ha, scale 0 to 100 (0 no effect, 100 complete control), read-out: Plant response rating, Deadnettle
  pest or weed control at 62 g/ha: 50%
[7]; Lamium amplexicaule, post-emergence, 125 g ai/ha, scale 0 to 100 (0 no effect, 100 complete control), read-out: Plant response rating, Deadnettle
  pest or weed control at 125 g/ha: 65%
[8]; Chenopodium album, post-emergence, 16 g ai/ha, scale 0-100, read-out: Plant response rating, Lambsquarters
  pest or weed control at 16 g/ha: 65%
[8]; Chenopodium album, post-emergence, 31 g ai/ha, scale 0 to 100 (0 no effect, 100 complete control), read-out: Plant response rating, Lambsquarters
  pest or weed control at 31 g/ha: 70%
[8]; Chenopodium album, post-emergence, 62 g ai/ha, scale 0 to 100 (0 no effect, 100 complete control), read-out: Plant response rating, Lambsquarters
  pest or weed control at 62 g/ha: 75%
[8]; Chenopodium album, post-emergence, 125 g ai/ha, scale 0 to 100 (0 no effect, 100 complete control), read-out: Plant response rating, Lambsquarters
  pest or weed control at 125 g/ha: 85%
[9]; Tripleurospermum inodorum, post-emergence, 16 g ai/ha, scale 0-100, read-out: Plant response rating, Chamomile
  pest or weed control at 16 g/ha: 0%
[9]; Tripleurospermum inodorum, post-emergence, 31 g ai/ha, scale 0 to 100 (0 no effect, 100 complete control), read-out: Plant response rating, Chamomile
  pest or weed control at 31 g/ha: 0%
[9]; Tripleurospermum inodorum, post-emergence, 62 g ai/ha, scale 0 to 100 (0 no effect, 100 complete control), read-out: Plant response rating, Chamomile
  pest or weed control at 62 g/ha: 5%
[9]; Tripleurospermum inodorum, post-emergence, 125 g ai/ha, scale 0 to 100 (0 no effect, 100 complete control), read-out: Plant response rating, Chamomile
  pest or weed control at 125 g/ha: 5%
[10]; Avena fatua, post-emergence, 16 g ai/ha, scale 0-100, read-out: Plant response rating, Oat, Wild
  pest or weed control at 16 g/ha: 20%
[10]; Avena fatua, post-emergence, 31 g ai/ha, scale 0 to 100 (0 no effect, 100 complete control), read-out: Plant response rating, Oat, Wild
  pest or weed control at 31 g/ha: 25%
[10]; Avena fatua, post-emergence, 62 g ai/ha, scale 0 to 100 (0 no effect, 100 complete control), read-out: Plant response rating, Oat, Wild
  pest or weed control at 62 g/ha: 25%
[10]; Avena fatua, post-emergence, 125 g ai/ha, scale 0 to 100 (0 no effect, 100 complete control), read-out: Plant response rating, Oat, Wild
  pest or weed control at 125 g/ha: 25%
[11]; Apera spica-venti, post-emergence, 16 g ai/ha, scale 0-100, read-out: Plant response rating, Windgrass
  pest or weed control at 16 g/ha: 5%
[11]; Apera spica-venti, post-emergence, 31 g ai/ha, scale 0 to 100 (0 no effect, 100 complete control), read-out: Plant response rating, Windgrass
  pest or weed control at 31 g/ha: 10%
[11]; Apera spica-venti, post-emergence, 62 g ai/ha, scale 0 to 100 (0 no effect, 100 complete control), read-out: Plant response rating, Windgrass
  pest or weed control at 62 g/ha: 15%
[11]; Apera spica-venti, post-emergence, 125 g ai/ha, scale 0 to 100 (0 no effect, 100 complete control), read-out: Plant response rating, Windgrass
  pest or weed control at 125 g/ha: 20%
